Each structure is given as a SMILES string. Activity calls are given as the source filed them. The calls are words filed in the database; no cut-off is given here. Where a SMILES comes first, the peptide text is derived from it. Bridges are numbered along the chain shown (N, C = ends). [ ]: non-standard residue; d: D form. Aic = NC1(C(=O)O)Cc2ccccc2C1 A value given as a limit tells only on which side of the number the result lay.

Data set [1] concerns Rattus norvegicus. The data set can be described thus: Activity at vasopressin V1a receptor in phenoxybenzamine-treated Wistar rat uterus assessed as induction of arterial vasopressor activity up to 0.15 mg/kg. Format: functional, organism-based. Also noted: dose 0.15 mg/kg.
Data set [2] deals with Rattus norvegicus. The data set can be described thus: Antidiuretic activity in fasted and hydrated Wistar rat assessed as compound required to yield antidiuresis time of 60 mins required for urinary excretion of half the water load at 0.001 to 100 nmol/kg, sc administered immediately after water loading by modified Burn test. Format: functional, Urine.
The subject of data set [3] is Rattus norvegicus. The data set can be described thus: Antidiuretic activity in fasted and hydrated Wistar rat assessed as compound required to yield antidiuresis time of 200 mins required for urinary excretion of half the water load at 0.001 to 100 nmol/kg, sc administered immediately after water loading by modified Burn test. It is filed as functional, Urine.
For data set [4], the system named is Rattus norvegicus. Description: Antidiuretic activity in fasted and hydrated Wistar rat assessed as compound potency to yield antidiuresis time of 60 mins required for urinary excretion of half the water load at 0.001 to 100 nmol/kg, sc administered immediately after water loading by modified Burn test relative to 1-deamino-8-D-arginine vasopressin. It is filed as functional, Urine.

Data set [5] relates to Rattus norvegicus. Description: Antidiuretic activity in fasted and hydrated Wistar rat assessed as compound potency to yield antidiuresis time of 200 mins required for urinary excretion of half the water load at 0.001 to 100 nmol/kg, sc administered immediately after water loading by modified Burn test relative to 1-deamino-8-D-arginine vasopressin. It is filed as functional, Urine.

The target of data set [6] is Vasopressin V1a receptor (Rattus norvegicus, UniProt P30560). The data set can be described thus: Antagonist activity at vasopressin V1a receptor in phenoxybenzamine-treated Wistar rat uterus assessed as inhibition of vasopressin-induced arterial vasopressor activity treated 1 min prior to vasopressin challenge. Format: functional, tissue-based. To be noted: for Kb: read-out: pA2 (converted).

The target in data set [7] is T1, Oxytocin receptor (Rattus norvegicus, UniProt P70536).
T1 sequence (P70536 whole entry): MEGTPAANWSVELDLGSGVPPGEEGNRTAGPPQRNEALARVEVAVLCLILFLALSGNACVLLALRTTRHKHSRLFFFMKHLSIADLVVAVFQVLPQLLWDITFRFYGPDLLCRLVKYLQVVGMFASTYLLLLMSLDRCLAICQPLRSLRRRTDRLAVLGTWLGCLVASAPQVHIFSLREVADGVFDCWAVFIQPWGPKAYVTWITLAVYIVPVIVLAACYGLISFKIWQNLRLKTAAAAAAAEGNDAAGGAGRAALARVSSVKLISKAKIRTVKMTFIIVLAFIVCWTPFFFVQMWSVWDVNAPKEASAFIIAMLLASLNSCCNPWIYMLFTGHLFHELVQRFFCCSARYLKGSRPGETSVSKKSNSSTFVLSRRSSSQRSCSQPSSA
Format: functional, tissue-based, Wistar, Uterus.

In data set [8] the target is Vasopressin V1a receptor (Rattus norvegicus) (UniProt P30560). The data set can be described thus: Agonist activity at vasopressin V1a receptor in phenoxybenzamine-treated Wistar rat uterus assessed as arterial vasopressor activity. It is filed as functional, tissue-based.
The nature of data set [9]: Volume of distribution in Wistar rat. Format: ADME, organism-based. Conditions: in vivo.

Vasopressin V1a receptor, sequence (P30560 whole entry): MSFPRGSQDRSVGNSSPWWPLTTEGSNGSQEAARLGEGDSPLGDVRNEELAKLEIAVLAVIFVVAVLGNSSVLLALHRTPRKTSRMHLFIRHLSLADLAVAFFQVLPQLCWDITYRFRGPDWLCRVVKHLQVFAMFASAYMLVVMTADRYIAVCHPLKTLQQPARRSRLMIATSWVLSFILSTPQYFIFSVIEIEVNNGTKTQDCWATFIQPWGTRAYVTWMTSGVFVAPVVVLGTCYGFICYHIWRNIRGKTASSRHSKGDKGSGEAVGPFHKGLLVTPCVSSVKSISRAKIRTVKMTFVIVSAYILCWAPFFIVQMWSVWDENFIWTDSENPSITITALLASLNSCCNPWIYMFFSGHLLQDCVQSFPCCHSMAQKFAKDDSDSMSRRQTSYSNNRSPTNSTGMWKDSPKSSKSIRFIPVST
Vasopressin V1a receptor (Rattus norvegicus), sequence (P30560 whole entry, looked up): as the sequence (P30560 whole entry) above

Consider `N=C(N)NCCC[C@H](NC(=O)[C@@H]1CCCN1C(=O)[C@@H]1CSSC2(CCCCC2)CC(=O)N[C@@H](C(c2ccccc2)c2ccccc2)C(=O)N[C@@H](Cc2ccccc2)C(=O)N[C@@H](CCC(N)=O)C(=O)N[C@@H](CC(N)=O)C(=O)N1)C(=O)NCC(N)=O`, for which the result in data set [1] was inactive. Besides, the Activity is on record as <4.5 IU/mg in [2], <4.5 IU/mg in [3], <0.1% in data set [4] and <0.1% in data set [5].

As for `N=C(N)NCCC[C@H](NC(=O)[C@@H]1CCCN1C(=O)[C@@H]1CSSCCC(=O)NC(C(c2ccccc2)c2ccccc2)C(=O)N[C@@H](Cc2ccccc2)C(=O)N[C@@H](CCC(N)=O)C(=O)N[C@@H](CC(N)=O)C(=O)N1)C(=O)NCC(N)=O` (single isomer, unassigned), the Activity in data set [2] came out at 450 IU/mg; in [3], 45000 IU/mg; in data set [4], 10%; in data set [5], 18%.

As to `N=C(N)NCCC[C@@H](NC(=O)[C@@H]1CCCN1C(=O)[C@@H]1CSSC[C@H](N)C(=O)N[C@@H](C(c2ccccc2)c2ccccc2)C(=O)N[C@@H](Cc2ccccc2)C(=O)N[C@@H](CCC(N)=O)C(=O)N[C@@H](CC(N)=O)C(=O)N1)C(=O)NCC(N)=O`, the outcome in data set [1] was inactive. Besides, the Activity in data set [2] was determined as 30 IU/mg; in data set [3] it was 3000 IU/mg; in data set [4], 0.7%; in data set [5], 1.2%.

As for `CC(C)[C@@H]1NC(=O)[C@H](Cc2ccccc2)NC(=O)[C@H](C(c2ccccc2)c2ccccc2)NC(=O)CCSSC[C@@H](C(=O)N2CCC[C@H]2C(=O)N[C@H](CCCNC(=N)N)C(=O)NCC(N)=O)NC(=O)[C@H](CC(N)=O)NC1=O` (stereo in doubt; form 2), the Activity in data set [2] amounted to 4500 IU/mg; in data set [3] it was 450000 IU/mg; in [4], 100%; in data set [5] it was 150%.

Consider `CC(C)[C@@H]1NC(=O)[C@H](Cc2ccccc2)NC(=O)[C@@H](C(c2ccccc2)c2ccccc2)NC(=O)CCSSC[C@@H](C(=O)N2CCC[C@H]2C(=O)N[C@H](CCCNC(=N)N)C(=O)NCC(N)=O)NC(=O)[C@H](CC(N)=O)NC1=O`, for which the Kb in data set [6] is > 1.58 µM. Also, the Activity in [2] is 9000 IU/mg; in data set [3], 450000 IU/mg; in data set [4], 200%; in [5] it was 150%.

Consider `CC(C)[C@@H]1NC(=O)[C@H](Cc2ccccc2)NC(=O)[C@H](C(c2ccccc2)c2ccccc2)NC(=O)CCSSC[C@@H](C(=O)N2CCC[C@H]2C(=O)N[C@H](CCCNC(=N)N)C(=O)NCC(N)=O)NC(=O)[C@H](CC(N)=O)NC1=O` (stereo in doubt; form 1) [listing 1 of 2 here], for which the outcome in [1] was inactive.

On to `N=C(N)NCCC[C@@H](NC(=O)[C@@H]1CCCN1C(=O)[C@@H]1CSSCCC(=O)N[C@H](C(c2ccccc2)c2ccccc2)C(=O)N[C@@H](Cc2ccccc2)C(=O)N[C@@H](CCC(N)=O)C(=O)N[C@@H](CC(N)=O)C(=O)N1)C(=O)NCC(N)=O`, for which the Activity was found to be 9000 IU/mg in [2], 225000 IU/mg in [3], 200% in [4] and 100% in [5].

`N=C(N)NCCC[C@H](NC(=O)[C@@H]1CCCN1C(=O)[C@@H]1CSSC2(CCCCC2)CC(=O)N[C@H](C(c2ccccc2)c2ccccc2)C(=O)N[C@@H](Cc2ccccc2)C(=O)N[C@@H](CCC(N)=O)C(=O)N[C@@H](CC(N)=O)C(=O)N1)C(=O)NCC(N)=O`: the pA2 in data set [7] is given as 6.83; in data set [6], 7.4.

`NC(=O)CC[C@@H]1NC(=O)[C@H](Cc2ccccc2)NC(=O)[C@H](Cc2ccc(O)cc2)NC(=O)[C@@H](N)CSSC[C@@H](C(=O)N2CCC[C@H]2C(=O)N[C@H](CCCN=C(N)N)C(=O)NCC(N)=O)NC(=O)[C@H](CC(N)=O)NC1=O`: the Activity in data set [2] was found to be 111 IU/mg; in data set [4], 23.2%; in data set [5] it was 1.7%.

Regarding `CC(C)[C@@H]1NC(=O)[C@H](Cc2ccccc2)NC(=O)[C@@H](C(c2ccccc2)c2ccccc2)NC(=O)CCSSC[C@@H](C(=O)N2CCC[C@H]2C(=O)N[C@@H](CCCNC(=N)N)C(=O)NCC(N)=O)NC(=O)[C@H](CC(N)=O)NC1=O` (stereo in doubt), the Kb in data set [6] was > 1.58 µM.

`N=C(N)NCCC[C@@H](NC(=O)[C@@H]1CCCN1C(=O)[C@@H]1CSSCCC(=O)N[C@@H](C(c2ccccc2)c2ccccc2)C(=O)N[C@@H](Cc2ccccc2)C(=O)N[C@@H](CCC(N)=O)C(=O)N[C@@H](CC(N)=O)C(=O)N1)C(=O)NCC(N)=O`: the result in data set [1] was inactive. For the same molecule, the Activity in data set [2] came out at 30 IU/mg; in [3], 20000 IU/mg; in data set [4], 0.7%; in [5], 8%.

With `N=C(N)NCCC[C@H](NC(=O)[C@@H]1CCCN1C(=O)[C@@H]1CSSC[C@H](N)C(=O)NC2(Cc3ccccc3C2)C(=O)N[C@@H](Cc2ccccc2)C(=O)N[C@@H](CCC(N)=O)C(=O)N[C@@H](CC(N)=O)C(=O)N1)C(=O)NCC(N)=O` (H-C[Aic]FQNCPRG-NH2; disulfide 1-6), the Activity in data set [8] came out at 9.4 IU/mg; in data set [2], 450 IU/mg; in data set [3] it was 45000 IU/mg; in [4] it was 10%; in [5], 18%.

For `CC(C)[C@@H]1NC(=O)[C@H](Cc2ccccc2)NC(=O)[C@H](C(c2ccccc2)c2ccccc2)NC(=O)CCSSC[C@@H](C(=O)N2CCC[C@H]2C(=O)N[C@H](CCCNC(=N)N)C(=O)NCC(N)=O)NC(=O)[C@H](CC(N)=O)NC1=O` (stereo in doubt; form 1) [listing 2 of 2 here], the Activity in [2] amounted to 100 IU/mg; in data set [3], 4500 IU/mg; in data set [4] it was 2.2%; in data set [5], 1.8%.

For the molecule `N=C(N)NCCC[C@H](NC(=O)[C@@H]1CCCN1C(=O)[C@@H]1CSSCCC(=O)N[C@H](C(c2ccccc2)c2ccccc2)C(=O)N[C@@H](Cc2ccccc2)C(=O)N[C@@H](CCC(N)=O)C(=O)N[C@@H](CC(N)=O)C(=O)N1)C(=O)NCC(N)=O`, in data set [1], the outcome was inactive. For the same molecule, the Activity is on record as 4500 IU/mg in [2], 200000 IU/mg in [3], 100% in data set [4] and 80% in [5].

Consider `N=C(N)NCCC[C@H](NC(=O)[C@@H]1CCCN1C(=O)[C@@H]1CSSC[C@H](N)C(=O)N[C@@H](Cc2ccc(O)cc2)C(=O)N[C@@H](Cc2ccccc2)C(=O)N[C@@H](CCC(N)=O)C(=O)N[C@@H](CC(N)=O)C(=O)N1)C(=O)NCC(N)=O` [VASOPRESSIN], for which the Vd in data set [9] amounted to 0.067 L/kg. Moreover, the Activity in data set [2] is given as 450 IU/mg; in data set [3], 450 IU/mg; in data set [4], 10%; in data set [5] it was 0.125%.

`CC(C)[C@@H]1NC(=O)[C@H](Cc2ccccc2)NC(=O)[C@H](C(c2ccccc2)c2ccccc2)NC(=O)CCSSC[C@@H](C(=O)N2CCC[C@H]2C(=O)N[C@@H](CCCNC(=N)N)C(=O)NCC(N)=O)NC(=O)[C@H](CC(N)=O)NC1=O`: the outcome in [1] was inactive. For the same molecule, the Activity in data set [2] is on record as 100 IU/mg; in [3], 20000 IU/mg; in data set [4] it was 2.2%; in data set [5], 8%.

On to `N=C(N)NCCCC(NC(=O)[C@@H]1CCCN1C(=O)[C@@H]1CSSCCC(=O)N[C@@H](Cc2ccc(O)cc2)C(=O)N[C@@H](Cc2ccccc2)C(=O)N[C@@H](CCC(N)=O)C(=O)N[C@@H](CC(N)=O)C(=O)N1)C(=O)NCC(N)=O` (single isomer, unassigned) [DESMOPRESSIN], for which the Activity in [2] is reported as 1300 IU/mg; in data set [4], 73.9%; in [5], 97.3%.

Turning to `N=C(N)NCCC[C@@H](NC(=O)[C@@H]1CCCN1C(=O)[C@@H]1CSSCCC(=O)N[C@@H](Cc2ccc(O)cc2)C(=O)N[C@@H](Cc2ccccc2)C(=O)N[C@@H](CCC(N)=O)C(=O)N[C@@H](CC(N)=O)C(=O)N1)C(=O)NCC(N)=O` [DESMOPRESSIN], the Activity in data set [2] was determined as 800 IU/mg; in data set [4], 100%; in data set [5] it was 100%.

For the molecule `CC(C)[C@@H]1NC(=O)[C@H](Cc2ccccc2)NC(=O)[C@H](Cc2ccc(O)cc2)NC(=O)[C@@H](N)CSSC[C@@H](C(=O)N2CCC[C@H]2C(=O)N[C@@H](CCCNC(=N)N)C(=O)NCC(N)=O)NC(=O)[C@H](CC(N)=O)NC1=O` (H-CYFVNCPRG-NH2; disulfide 1-6), the Activity in data set [8] was 32 IU/mg; in data set [2], 758 IU/mg.

The record behind these values is ChEMBL document CHEMBL1152921 (Eur J Med Chem, 2009).
